Measured values reported in patent US20200392150A1, “Diaryl-B-Lactam Compound and Preparation Method and Pharmaceutical Use Thereof” (Fudan University, priority 2016, published 2020).
Where two headings read alike, the source gives them in different places.

Experiments:
Assay in all cases: In vitro cell growth inhibition assay (MTT)
Format in all cases: cell-based, human
A2780 = details: read-out: IC50 A2780
Procedure: (§1) 5000 tumor cells per well were seeded into 96-well plate and allowed to adhere overnight. Cells were treated with various concentrations of tested compounds or DMSO (0.2%, as negative control) for 48 h. Then, the medium along with tested compounds or DMSO was discarded and […] per well MTT containing medium (0.5 mg/mL) was added. After incubation at 37° C. for 4 h, the MTT-containing medium was replaced by DMSO (150 μL per well) to dissolve the formazan crystals. Absorbance of the resulting solution was measured by microplate reader (Biotech ELx800) at 540 nm wavelength. Growth inhibition rates were calculated with the absorbance. Half maximal inhibitory concentration (IC50) of each compound was calculated using GraphPad Prism, version 6.0.

Hela = details: 48 h, read-out: IC50 Hela
Procedure: as §1

MDA-MB-231 = details: read-out: IC50 MDA-MB-231
Procedure: as §1

SKOV3 = details: read-out: IC50 SKOV3
Procedure: as §1

[1] = A2780 human ovarian cancer cell line, 48 h, MTT
[2] = Hela human cervical cancer cell line, MTT
[3] = MDA-MB-231 human breast cancer cell line, 48 h, MTT
[4] = SK-OV-3, SKOV-3 human ovarian cancer cell line, 48 h, MTT

Row | Compound | IC50 (Hela; [2]) [nM] | IC50 (SKOV3; [4]) [nM] | further results
1 | C=C1C(=O)N(c2cc(OC)c(OC)c(OC)c2)[C@H]1c1ccc(OC)c(OCCO)c1 [Compound 8, (S)-4-(3-(2-hydroxyethoxy)-4-methoxyphenyl)-3-methylene-1-(3,4,5-trimethoxyphenyl)azetidin-2-one] | 925 | 832 | IC50 (A2780; [1]): 344 nM; IC50 (MDA-MB-231; [3]): 845 nM
2 | C=C1C(=O)N(c2cc(OC)c(OC)c(OC)c2)[C@H]1c1ccc(OC)c(OCCCO)c1 [Compound 9, (S)-4-(3-(3-hydroxypropoxy)-4-methoxyphenyl)-3-methylene-1-(3,4,5-trimethoxyphenyl)azetidin-2-one] | 7470 | 3030 | IC50 (A2780; [1]): 1540 nM; IC50 (MDA-MB-231; [3]): 1920 nM
3 | C=C1C(=O)N(c2cc(OC)c(OC)c(OC)c2)[C@H]1c1ccc(OC)c(OCC(=O)OCC)c1 [Compound 12, (5)-ethyl 2-(2-methoxy-5-(3-methylene-4-oxo-1-(3,4,5-trimethoxyphenyl)azetidin-2-yl)phenoxy)acetate] | > 20000 | > 20000 | IC50 (A2780; [1]): > 20000 nM; IC50 (MDA-MB-231; [3]): > 20000 nM
4 | C=C1C(=O)N(c2cc(OC)c(OC)c(OC)c2)[C@H]1c1ccc(OC)c(OCC(=O)OC(C)(C)C)c1 [Compound 13, (S)-tert-butyl 2-(2-methoxy-5-(3-methylene-4-oxo-1-(3,4,5-trimethoxyphenyl)azetidin-2-yl)phenoxy)acetate] | > 10000 | > 10000 | IC50 (A2780; [1]): > 10000 nM; IC50 (MDA-MB-231; [3]): > 10000 nM
5 | C=C1C(=O)N(c2cc(OC)c(OC)c(OC)c2)[C@H]1c1ccc(OC)c(OCCN(C)C)c1 [Compound 14, (S)-4-(3-(2-(dimethylamino)ethoxy)-4-methoxyphenyl)-3-methylene-1-(3,4,5-trimethoxyphenyl)azetidin-2-one] |  |  | IC50 (A2780; Homo sapiens, A2780, 48 h): > 10000 nM; IC50 (Hela; Homo sapiens, HeLa): > 10000 nM; IC50 (MDA-MB-231; Homo sapiens, MDA-MB-231, 48 h): > 10000 nM; IC50 (SKOV3; Homo sapiens, SK-OV-3, 48 h): > 10000 nM
6 | C=C1C(=O)N(c2cc(OC)c(OC)c(OC)c2)[C@H]1c1ccc(OC)c(OCC(N)=O)c1 [Compound 16, (S)-2-(2-methoxy-5-(3-methylene-4-oxo-1-(3,4,5-trimethoxyphenyl)azetidin-2-yl)phenoxy)acetamide] | 818 | 698 | IC50 (A2780; [1]): 316 nM; IC50 (MDA-MB-231; [3]): 503 nM
7 | C/C=C1\C(=O)N(c2cc(OC)c(OC)c(OC)c2)[C@H]1c1ccc(OC)c(O)c1 [Compound 55, (S,Z)-3-ethylidene-4-(3-hydroxy-4-methoxyphenyl)-1-(3,4,5-trimethoxyphenyl)azetidin-2-one] | 2640 | 2760 | 
8 | C/C=C1/C(=O)N(c2cc(OC)c(OC)c(OC)c2)[C@H]1c1ccc(OC)c(O)c1 [Compound 56, (S,E)-3-ethylidene-4-(3-hydroxy-4-methoxyphenyl)-1-(3,4,5-trimethoxyphenyl)azetidin-2-one] | 2920 | 2830 | 
9 | COc1ccc([C@H]2[C@@H](Cc3ccc(O)cc3)C(=O)N2c2cc(OC)c(OC)c(OC)c2)cc1O [Compound 60, (3R,4R)-4-(3-hydroxy-4-methoxyphenyl)-3-(4-hydroxybenzyl)-1-(3,4,5-trimethoxyphenyl)azetidin-2-one] | 7260 | 2850 | 
10 | COc1ccc([C@H]2[C@@H](CO)C(=O)N2c2cc(OC)c(OC)c(OC)c2)cc1O [Compound 68, (3S,4R)-4-(3-hydroxy-4-methoxyphenyl)-3-(hydroxymethyl)-1-(3,4,5-trimethoxyphenyl)azetidin-2-one] | 358 |  | IC50 (A2780; [1]): 220 nM; IC50 (MDA-MB-231; [3]): 182 nM
11 | COc1ccc([C@H]2[C@@H](O)C(=O)N2c2cc(OC)c(OC)c(OC)c2)cc1OCc1ccccc1 [Compound 72, (3R,4S)-4-(3-(benzyloxy)-4-methoxyphenyl)-3-hydroxy-1-(3,4,5-trimethoxyphenyl)azetidin-2-one] | > 10000 | > 10000 | 
12 | COc1ccc([C@H]2[C@@H](OS(C)(=O)=O)C(=O)N2c2cc(OC)c(OC)c(OC)c2)cc1OCc1ccccc1 [Compound 73, (3R,4S)-2-(3-(benzyloxy)-4-methoxyphenyl)-4-oxo-1-(3,4,5-trimethoxyphenyl)azetidin-3-yl methanesulfonate] | > 10000 | > 10000 | 
13 | COc1ccc([C@H]2[C@@H](OS(C)(=O)=O)C(=O)N2c2cc(OC)c(OC)c(OC)c2)cc1O [Compound 74, (3R,4S)-2-(3-(hydroxy)-4-methoxyphenyl)-4-oxo-1-(3,4,5-trimethoxyphenyl)azetidin-3-yl methanesulfonate] | 754 | 980 | 
14 | COc1ccc([C@H]2[C@H](N=[N+]=[N-])C(=O)N2c2cc(OC)c(OC)c(OC)c2)cc1OCc1ccccc1 [Compound 75, (3S,4S)-3-azido-4-(3-(benzyloxy)-4-methoxyphenyl)-1-(3,4,5-trimethoxyphenyl)azetidin-2-one] | > 10000 | > 10000 | 
15 | COc1ccc([C@H]2[C@H](N)C(=O)N2c2cc(OC)c(OC)c(OC)c2)cc1OCc1ccccc1 [Compound 76, (3S,4S)-3-amino-4-(3-(benzyloxy)-4-methoxyphenyl)-1-(3,4,5-trimethoxyphenyl)azetidin-2-one] | 7460 | 8540 | 
16 | COc1ccc([C@@H]2N(c3cc(OC)c(OC)c(OC)c3)C(=O)[C@]2(O)CO)cc1OC(C)=O [Compound 82, 5-((2S,3R)-3-hydroxy-3-(hydroxymethyl)-4-oxo-1-(3,4,5-trimethoxyphenyl)azetidin-2-yl)-2-methoxyphenyl acetate] | 863 | 625 | 
17 | COc1ccc([C@@H]2N(c3cc(OC)c(OC)c(OC)c3)C(=O)[C@@]2(COC(C)=O)OC(C)=O)cc1OC(C)=O [Compound 83, ((2S,3R)-3-acetoxy-2-(3-acetoxy-4-methoxyphenyl)-4-oxo-1-(3,4,5-trimethoxyphenyl)azetidin-3-yl)methyl acetate] | > 10000 | > 10000 | 
18 | COc1ccc([C@@H]2N(c3cc(OC)c(OC)c(OC)c3)C(=O)[C@]2(O)CO)cc1OCc1ccccc1 [Compound 84, (3R,4S)-4-(3-(benzyloxy)-4-methoxyphenyl)-3-hydroxy-3-(hydroxymethyl)-1-(3,4,5-trimethoxyphenyl)azetidin-2-one] | > 10000 | 2320 | 
19 | C=CC(=O)OC[C@@]1(OC(=O)C=C)C(=O)N(c2cc(OC)c(OC)c(OC)c2)[C@H]1c1ccc(OC)c(OC(=O)C=C)c1 [Compound 89, ((2S,3R)-3-(acryloyloxy)-2-(3-(acryloyloxy)-4-methoxyphenyl)-4-oxo-1-(3,4,5-trimethoxyphenyl)azetidin-3-yl)methyl acrylate] | 2450 | 2230 | 
20 | C=CC(=O)N[C@@H]1C(=O)N(c2cc(OC)c(OC)c(OC)c2)[C@H]1c1ccc(OC)c(OC(=O)C=C)c1 [Compound 90, 5-((2S,3S)-3-acrylamido-4-oxo-1-(3,4,5-trimethoxyphenyl)azetidin-2-yl)-2-methoxyphenyl acrylate] | 25 | 16 | 
21 | C=C1CN(c2cc(OC)c(OC)c(OC)c2)[C@H]1c1ccc(OC)c(O)c1 [Compound 91, (S)-2-methoxy-5-(3-methylene-1-(3,4,5-trimethoxyphenyl)azetidin-2-yl)phenol] | 252 | 246 | 
22 | COc1ccc([C@@H]2N(c3cc(OC)c(OC)c(OC)c3)C(=O)[C@]23COC(=O)O3)cc1OC(C)=O [Compound 92, 5-((1S,4R)-3,6-dioxo-2-(3,4,5-trimethoxyphenyl)-5,7-dioxa-2-azaspiro[3.4]octan-1-yl)-2-methoxyphenyl acetate] | 1570 | 1280 | 
23 | COc1ccc([C@H]2C(=O)C(=O)N2c2cc(OC)c(OC)c(OC)c2)cc1OC(C)=O [Compound 93, (S)-5-(3,4-dioxo-1-(3,4,5-trimethoxyphenyl)azetidin-2-yl)-2-methoxyphenyl acetate] | > 10000 | > 10000 | 
24 | COc1ccc([C@@H]2N(c3cc(OC)c(OC)c(OC)c3)C(=O)[C@]2(C)O)cc1OC(C)=O [Compound 94, 5-((2S,3R)-3-hydroxy-3-methyl-4-oxo-1-(3,4,5-trimethoxyphenyl)azetidin-2-yl)-2-methoxyphenyl acetate] | 94 | 147 | 
25 | COc1ccc([C@@H]2N(c3cc(OC)c(OC)c(OC)c3)C(=O)[C@]2(C)O)cc1O [Compound 95, (3R,4S)-3-hydroxy-4-(3-hydroxy-4-methoxyphenyl)-3-methyl-1-(3,4,5-trimethoxyphenyl)azetidin-2-one] | 213 | 103 | 
26 | COc1ccc([C@@H]2[C@@H](CO)C(=O)N2c2cc(OC)c(OC)c(OC)c2)cc1O [Compound 99, (3S,4S)-4-(3-hydroxy-4-methoxyphenyl)-3-(hydroxymethyl)-1-(3,4,5-trimethoxyphenyl)azetidin-2-one] | > 20000 |  | IC50 (A2780; [1]): > 20000 nM; IC50 (MDA-MB-231; [3]): > 20000 nM
27 | COc1ccc([C@@H]2[C@H](CO)C(=O)N2c2cc(OC)c(OC)c(OC)c2)cc1O [Compound 100, (3R,4S)-4-(3-hydroxy-4-methoxyphenyl)-3-(hydroxymethyl)-1-(3,4,5-trimethoxyphenyl)azetidin-2-one] | 332 |  | IC50 (A2780; [1]): 364 nM; IC50 (MDA-MB-231; [3]): 383 nM
